Consider two substances from US9364514B2, “Anti-tumor adjuvant therapy” (Universite Pierre et Marie Curie (Paris 6), priority 2011, dated 2016).

The subject of assay [1] is mouse breast tumors from transgenic polyoma Middle-T mice (PyMT model). Kind of assay: Therapeutic assay in nude mice bearing xenografted mouse breast tumors (PyMT model). The note with it: 5 mg/kg i.p. daily. Type of assay: in vivo. The text has this:
(§1) The primary human xenografts were obtained as previously described (Marangoni et al., 2007). Mouse breast cancer tumors were obtained using the transgenic Polyoma Middle-T Mouse PyMT model. Spontaneously growing mammary tumors occurring in transgenic mice were xenografted into nude immunodeficient mice to allow pharmacological assessments, and maintained from nude mouse to nude mouse serially passages.
(§2) For therapeutic experimental assays, 5- to 8-week old Swiss nu/nu female mice received a subcutaneous graft of tumor fragments with a volume of approximately 15 mm3. Tumors developed at the graft site 2 to 6 weeks later. Mice bearing growing tumors with a volume of 40 to 200 mm^3 were individually identified and randomly assigned to the control or treatment groups (10 animals in each group) and treatments were started on day 1. Mice were weighed twice a week. Tumour-bearing mice were sacrificed when the tumor volume reached 2500 mm^3, defined as the ethical limit. Tumor volumes and antitumor activity were evaluated as previously reported (Nemati et al. 2009. Anti Cancer Drugs 20, pages 932-940).
The anti-tumoral effect of the mouse peptide DPT-C9 was analyzed in nude mice bearing xenograft mouse breast tumors obtained from the transgenic polyoma Middle-T mice. […]

The subject of assay [2] is MDA MB231 breast cancer cell line. Kind of assay: Detection of apoptosis by Annexin-V-FITC staining. Type of assay: cell-based. The procedure:
(§3) MDA MB231 breast cancer cell line was cultured in DMEM medium supplemented with 10% of FCS.
Apoptotic cells were detected using Annexin-V (-FITC from BD biosciences) as described by the manufacturer. Briefly, the cells were washed in 1× binding buffer, centrifuged and then resuspended in 200 μl of 1× binding buffer containing Annexin V-FITC (0.1 μg/ml) and PI (0.5 μg/ml). After incubation at room temperature in the dark for 10 min, cells were analyzed by flow cytometry. Data acquired by FACSCalibur (BD biosciences) were analyzed with Cellquest Pro software.

Assay [3] shares this test system. Briefly: Cytotoxicity assay (MTT). The class given is cell-based. The note with it: 61 h. The protocol: as §3
The cytotoxicity of chemotherapy and the peptide was assessed by MTT. […] Cells were rinsed with culture medium and incubated with 10 μl MTT (5 mg/ml) in a final volume of 100 μl for 4 h at 37° C. The formation of blue formazan crystals was visualized by microscopy. After this period of incubation, 100 μl of 10% SDS in 10 mM HCl was added to each well and the plate incubated overnight. The absorbance was measured at 570 and 620 nm and the percentage of viable cells to untreated controls was estimated.

The next assay relates to breast cancer model BC52. Kind of assay: Therapeutic assay in mice bearing primary human breast cancer xenograft BC52. Type of assay: in vivo, Swiss nu/nu female mice.
Description: as §1, §2
(§4) DPT-C9h peptide diluted in water/glucose (1 to 25 mg/kg) was given by intraperitoneally route 5 to 7 days per week, according to the models and the therapeutic schedules. Doxorubicin (Teva Pharmaceuticals) and cyclophosphamide (Baxter) were diluted in 0.9% NaCl and administered intraperitoneally at a dose of 2 mg/kg and 100 mg/kg at day 1, respectively.
(§5) The anti-tumoral effect of DPT-C9h was tested in mice bearing breast cancer model BC52 and BC146. DPT-C9h was intraperitoneally administered at 5 mg/kg once daily for 5 weeks.

Assay [4] has as its system BC146 human breast cancer model. Briefly: Therapeutic assay in mice bearing primary human breast cancer xenograft BC146. The class given is in vivo, Swiss nu/nu female mice.
Description: as §1, §2, §4, §5
The inventors have further tested combined administration of DPT-C9h with doxorubicin and cyclophosphamid chemotherapy. The administration was either simultaneous or sequential: DPT-C9h was then administered at day 20, a stage corresponding to a chemotherapy-induced complete remission.

[5] abbreviates: BC52 model, Treatment (Chemo.) = Ovariectomy, DPT-C9h 5 mg/kg i.p. once daily for 5 weeks.
[6] abbreviates: BC146 model, Chemo. = Doxorubicin + cyclophosphamid, DPT-C9h 5 mg/kg i.p.

For “VKKKKIKREIKI-YIETLDDILEQWARSEDL (VKKKKIKREIKIYIETLDDILEQWARSEDL; cell penetrating peptide) [DPT-C9]”, the tumor growth inhibition entry in assay [1] was “significant tumor growth inhibition”.

For “VKKKKIKREIKI-YVETLDDIFEQWAHSEDL (VKKKKIKREIKIYVETLDDIFEQWAHSEDL; cell penetrating peptide) [DPT-C9h]”, the “apoptosis (annexin staining), combination effect” value in assay [2] (5FU 10 μM 24 h, then 25 or 50 μM DPT-C9h for 24 further h) is “synergistic apoptotic effect”; in assay [2] (cisplatin 10 μM 24 h, then increasing doses of DPT-C9h for 24 further h), “synergistic apoptotic effect”; in assay [2] (different doses of DPT-C9h + doxorubicin 0.25 μM, 24 h), “synergistic effect on apoptosis”; in assay [2] (docetaxel 0.5 μM + 10 and 25 μM DPT-C9h, 24 h), “synergistic apoptotic effect”. Moreover, the “cell survival (MTT)” value was “low cell survival” in assay [3] (different doses of 5FU + DPT-C9h 10 μM); “low level of cell survival” in assay [3] (different doses of cisplatin + DPT-C9h 10 μM); “low survival” in assay [3] (different doses of docetaxel + DPT-C9h 10 μM, versus docetaxel only). Besides, the tumor growth inhibition entry with breast cancer model BC52 (BC52, 5 mg/kg i.p. once daily for 5 weeks, end of treatment) is “significant tumor growth inhibition”; in assay [4] (BC146, 5 mg/kg i.p. once daily for 5 weeks, end of treatment) it was “significant tumor growth inhibition”. Also, the figures for the “OS: Overall survival” value (in the assay with breast cancer model BC52 (setting [5]); in assay [4] (setting [6])) were 33% and 27%, respectively. Moreover, the “RTV: Relative tumor volume” value in the assay on breast cancer model BC52 (setting [5]) worked out at 0.70; in assay [4] (setting [6]), 20.2. The tumor relapse entry in assay [4] (DPT-C9h combined with doxorubicin and cyclophosphamid, simultaneous or sequential (from day 20), versus chemotherapy alone) is given as “delayed tumor relapse better than chemotherapy alone”. The “CR: Complete remission” value in assay [4] (Treatment (Chemo.) = Doxorubicin 2 mg/kg + cyclophosphamid 100 mg/kg i.p. day 1, DPT-C9h simultaneous or from day 20) is listed as 0%.
